Assay results taken from the supplement of paper PMC10307832.

What was measured:
Test in all cases: relative viability (nuclei count vs DMSO), 5 days (fraction); higher = more cells survive
XMD8-85 = compound: CN1CCN(CC1)C2=CC(=C(C=C2)NC3=NC=C4C(=N3)N(C5=CC=CC=C5C(=O)N4C)C)OC [XMD8-85]
Procedure, shortened: (§1)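 Lung cancer cell lines received five library-drug doses (not always all listed) spaced by √10, pinned on vehicle-anchored 1536-well plates after an overnight stay at 37 °C. Five days later, with no medium change, nuclei were Hoechst-stained, imaged at 4× and counted with MetaXpress. Viability is treated-well nuclei relative to vehicle-well nuclei, as a median across plates. Passing plates had control CV below 25% and at least one doubling.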

4EGI-1 = compound: O=C(O)C(Cc1ccccc1[N+](=O)[O-])=NNc1nc(-c2ccc(Cl)c(Cl)c2)cs1 (mixture of isomers) [4EGI-1]
Procedure, shortened: as §1

XMD8-85 + Navitoclax = compound: CN1CCN(CC1)C2=CC(=C(C=C2)NC3=NC=C4C(=N3)N(C5=CC=CC=C5C(=O)N4C)C)OC [XMD8-85] + CC1(C)CCC(c2ccc(Cl)cc2)=C(CN2CCN(c3ccc(C(=O)NS(=O)(=O)c4ccc(N[C@H](CCN5CCOCC5)CSc5ccccc5)c(S(=O)(=O)C(F)(F)F)c4)cc3)CC2)C1 [Navitoclax] (partner 0.5 µM)
Procedure, shortened: (§2)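 The day after seeding in 1536-well plates, lung cancer cell lines were treated by pin tool with a single drug, or with a fixed anchor-drug dose together with five library-drug doses (not always all listed) in √10 steps. After 5 days, a combined fix-and-stain solution (final 0.05% Triton X-100, 1% formaldehyde, 1 ug/ml Hoechst) was added. Nuclei counted on 4× images gave relative viability as treated counts over vehicle counts, reported as the median of duplicate plates.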

XMD8-85 + Foretinib = compound: CN1CCN(CC1)C2=CC(=C(C=C2)NC3=NC=C4C(=N3)N(C5=CC=CC=C5C(=O)N4C)C)OC [XMD8-85] + COc1cc2c(Oc3ccc(NC(=O)C4(C(=O)Nc5ccc(F)cc5)CC4)cc3F)ccnc2cc1OCCCN1CCOCC1 [Foretinib] (partner 0.25 µM)
Procedure, shortened: as §2

Row | Cell Line | relative viability (XMD8-85; 0.08 µM) | relative viability (XMD8-85; 0.253 µM) | relative viability (XMD8-85; 0.8 µM) | relative viability (XMD8-85; 2.53 µM) | relative viability (XMD8-85; 8 µM) | relative viability (4EGI-1; 0.5 µM) | relative viability (4EGI-1; 1.581 µM) | relative viability (4EGI-1; 5 µM) | relative viability (4EGI-1; 15.81 µM) | relative viability (4EGI-1; 50 µM) | relative viability (XMD8-85 + Navitoclax; first compound 0.08 µM) | relative viability (XMD8-85 + Navitoclax; first compound 0.253 µM) | relative viability (XMD8-85 + Navitoclax; first compound 0.8 µM) | relative viability (XMD8-85 + Navitoclax; first compound 2.53 µM) | relative viability (XMD8-85 + Navitoclax; first compound 8 µM) | relative viability (XMD8-85 + Foretinib; first compound 0.08 µM) | relative viability (XMD8-85 + Foretinib; first compound 0.253 µM) | relative viability (XMD8-85 + Foretinib; first compound 0.8 µM) | relative viability (XMD8-85 + Foretinib; first compound 2.53 µM) | relative viability (XMD8-85 + Foretinib; first compound 8 µM)
1 | NCI-H2170 | 1.03 | 1.09 | 1.01 | 1.12 | 0.993 | 0.986 | 0.942 | 0.992 | 0.853 | 0.606 | 0.62 | 0.682 | 0.64 | 0.675 | 0.666 | 1.04 | 1.01 | 0.985 | 1.02 | 0.965
2 | NCI-H1993 | 0.861 | 0.965 | 1.01 | 1.12 | 0.89 | 1 | 0.847 | 0.908 | 0.616 | 0.573 | 0.848 | – | 0.885 | 0.968 | 0.766 | 0.742 | 0.894 | 0.806 | 0.706 | 0.61
3 | A-427 | 1.04 | 1 | 1.07 | 1.12 | 0.74 | 1.05 | 0.762 | 1 | 0.86 | 0.254 | 0.993 | 0.995 | 1.03 | 1.03 | 0.95 | 1.22 | 1.03 | 1.12 | 0.889 | 0.828
4 | NCI-H1650 | 0.974 | 0.874 | 0.946 | 0.889 | 0.297 | 1.12 | – | 1.03 | 0.419 | 0.223 | 1.15 | 1.32 | 1.29 | 1.16 | 0.439 | 1.12 | 1.19 | 1.17 | 0.863 | 0.32
5 | HCC-78 | 1.14 | 1.02 | 0.848 | 0.92 | 0.512 | 1.09 | 0.739 | 0.994 | 0.884 | 0.872 | 0.891 | 0.882 | 0.6 | 0.682 | 0.58 | 0.539 | 0.572 | 0.519 | 0.537 | 0.531
6 | CAL-12T | 0.936 | 1.06 | 0.871 | 0.908 | 0.654 | 1.03 | – | 0.963 | 0.878 | 0.518 | 1.18 | 1.11 | 1.1 | 1.06 | 0.759 | 1.18 | 1.17 | 1.24 | 1.06 | 0.346
7 | NCI-H3122 | 1.09 | 0.965 | 1.08 | 0.972 | 0.967 | 0.987 | 0.918 | 0.969 | 0.964 | 0.683 | 1.08 | 1.01 | 1.09 | 1.06 | 1.1 | 1.04 | – | 1.07 | 1.04 | 0.947
8 | LOU-NH91 | 0.993 | 0.97 | 0.939 | 1.09 | 0.734 | 1.02 | – | 1 | 0.764 | 0.751 | 0.69 | 0.764 | 0.639 | 0.7 | 0.546 | – | 0.966 | 0.863 | 1.02 | 0.843
9 | ChaGo-K-1 | 0.953 | 0.969 | 0.917 | 1.06 | 0.959 | 0.976 | 0.762 | 1.03 | 0.861 | 0.616 | 0.788 | 0.983 | 1.02 | 1.13 | 0.421 | 0.823 | 1.01 | 0.93 | 0.867 | 0.774
10 | NCI-H727 | 0.883 | 0.9 | 0.958 | 0.713 | 0.62 | 1.06 | 0.991 | 0.909 | 0.795 | 0.59 | 0.466 | 0.365 | – | 0.379 | 0.247 | 0.895 | 1.05 | 0.823 | 0.553 | 0.693
11 | NCI-H2009 | 0.967 | 0.987 | 1 | 0.97 | 0.605 | 1.05 | 1.02 | 1.07 | 1.02 | 0.24 | 1.13 | 1.12 | 1.19 | 1.08 | 0.717 | 1.24 | 1.25 | 1.23 | 1.08 | 0.516
12 | NCI-H23 | 0.917 | 0.95 | 0.982 | 1 | 0.72 | 1.1 | – | 1.06 | 1.03 | 0.298 | 0.878 | 1.22 | 0.686 | 0.657 | 0.544 | 1.08 | 0.778 | 1.08 | 0.77 | 0.866
13 | NCI-H2228 | 0.894 | 1.06 | 1 | 0.995 | 0.604 | 1.26 | 1.25 | 0.939 | 0.951 | 0.294 | 0.893 | 0.929 | 0.619 | 0.81 | 0.353 | 0.88 | 0.758 | 0.789 | 0.816 | 0.423
